Test results published in US20080262029A1, “Acid and Base Salt Forms of Gaboxadol” (H. Lundbeck A/S, priority 2005, published 2008).
Counter-ions that a name gives are not always drawn.

What was measured:
[1] = target: GABAA receptors comprising α4 and δ subunits (Homo sapiens, UniProt O14764+P48169); conditions: Brown et al, British J. Pharmacol., 136, 965-74 (2002); cited from earlier work
[2] = Differential scanning calorimetry (DSC) of gaboxadol salt forms; format: physicochemical; conditions: for DSC exothermic transition onset / DSC exothermic decomposition onset: 25 to 300° C., 10° C./min, dry nitrogen
Experimental: (§1) The X-ray powder diffraction spectra was generated on a Philips Analytical X'Pert PRO X-ray Diffraction System with PW3040/60 console. A PW3373/00 ceramic Cu LEF X-ray tube K-Alpha radiation was used as the source. The X-ray powder diffraction spectrum was recorded at ambient temperature (CuKα radiation, 3° to 40° (2θ), steps of 0.014°, 0.2 sec per step), giving the results herein. Solid-state carbon-13 NMR spectrum was obtained on a Bruker DSX 400WB NMR system using a Bruker 4 mm double resonance CPMAS probe. Carbon-13 NMR spectrum utilized proton/carbon-13 cross-polarization magic-angle spinning with variable-amplitude cross polarization. The sample was spun at 15.0 kHz, and a total of 2048 scans were collected with a recycle delay of 20 seconds. A line broadening of 40 Hz was applied to the spectrum before FT was performed. Chemical shifts are reported on the TMS scale using the carbonyl carbon of glycine (176.03 p.p.m.) as a secondary reference. DSC traces were recorded between 25 and 300° C. (10° C./min), under a flow of dry nitrogen. TGA was carried out between 25 and 300° C. (10° C./min), under a flow of dry nitrogen.

[3] = Thermogravimetric analysis (TGA) of gaboxadol salt forms; format: physicochemical; conditions: for TGA decomposition onset / TGA weight loss before decomposition (in words): 25 to 300° C., 10° C./min, dry nitrogen
Experimental: as §1

GABAA receptors comprising α4 and δ subunits, sequence (P48169 36-554): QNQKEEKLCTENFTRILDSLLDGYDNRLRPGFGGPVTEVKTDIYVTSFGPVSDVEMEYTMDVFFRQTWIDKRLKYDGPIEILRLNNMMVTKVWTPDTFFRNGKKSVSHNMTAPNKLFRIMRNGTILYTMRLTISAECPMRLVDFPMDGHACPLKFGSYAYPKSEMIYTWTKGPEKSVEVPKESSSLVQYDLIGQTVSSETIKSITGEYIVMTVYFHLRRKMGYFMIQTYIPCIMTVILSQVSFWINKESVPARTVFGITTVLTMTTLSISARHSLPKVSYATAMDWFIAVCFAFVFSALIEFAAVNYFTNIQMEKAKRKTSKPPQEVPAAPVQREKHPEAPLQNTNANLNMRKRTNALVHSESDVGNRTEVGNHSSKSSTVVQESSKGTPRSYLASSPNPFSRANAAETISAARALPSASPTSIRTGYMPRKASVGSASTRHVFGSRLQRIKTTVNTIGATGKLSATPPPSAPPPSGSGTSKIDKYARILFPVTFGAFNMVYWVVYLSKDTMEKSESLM
GABAA receptors comprising α4 and δ subunits, sequence (O14764 25-452): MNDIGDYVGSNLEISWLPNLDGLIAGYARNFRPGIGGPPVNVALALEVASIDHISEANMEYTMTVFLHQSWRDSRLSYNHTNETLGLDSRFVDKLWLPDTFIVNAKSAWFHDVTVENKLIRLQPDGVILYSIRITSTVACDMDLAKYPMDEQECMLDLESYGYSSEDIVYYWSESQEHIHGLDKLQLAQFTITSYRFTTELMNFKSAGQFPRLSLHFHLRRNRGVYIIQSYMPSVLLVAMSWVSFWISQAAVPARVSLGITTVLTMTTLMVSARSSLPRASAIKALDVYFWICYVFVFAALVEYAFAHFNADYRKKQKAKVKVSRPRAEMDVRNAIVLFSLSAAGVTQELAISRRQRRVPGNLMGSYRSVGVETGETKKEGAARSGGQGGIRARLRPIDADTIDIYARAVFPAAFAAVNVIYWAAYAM
GABAA receptors comprising α4 and δ subunits, sequence (P28472 26-473 partner): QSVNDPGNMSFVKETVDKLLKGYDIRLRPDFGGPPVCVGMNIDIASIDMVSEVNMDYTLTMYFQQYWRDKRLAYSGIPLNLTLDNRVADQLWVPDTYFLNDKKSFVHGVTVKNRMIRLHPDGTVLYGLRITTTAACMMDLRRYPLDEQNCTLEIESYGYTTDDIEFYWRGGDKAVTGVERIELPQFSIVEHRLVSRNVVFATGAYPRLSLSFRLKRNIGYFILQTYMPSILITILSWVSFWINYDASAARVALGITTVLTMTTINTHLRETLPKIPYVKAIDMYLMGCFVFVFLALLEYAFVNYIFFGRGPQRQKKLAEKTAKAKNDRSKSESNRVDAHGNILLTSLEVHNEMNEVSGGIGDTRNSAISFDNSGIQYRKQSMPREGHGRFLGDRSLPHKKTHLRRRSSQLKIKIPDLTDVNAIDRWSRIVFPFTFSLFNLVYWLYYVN

| Compound | DSC observation of exothermic events (in words) ([2]; solid analysed by DSC) | TGA decomposition onset [3] | DSC exothermic decomposition onset [2] | other results |
| --- | --- | --- | --- | --- |
| Oc1noc2c1CCNC2 [gaboxadol, 4,5,6,7-tetrahydroisoxazolo[5,4-c]pyridin-3-ol] | – | – | – | Agonist potency (in words) [1]: particularly potent agonist |
| gaboxadol L-lysine [L-Lysine Salt] | exhibited exothermic transitions | – | – | – |
| gaboxadol magnesium [Magnesium Salt] | – | – | – | Temperature below which DSC indicated no exothermic events ([2]; solid analysed by DSC): approximately 345 °C |
| C[N+](C)(C)CCO.[O-]c1noc2c1CCNC2 [Choline Salt, gaboxadol choline] | exhibited exothermic transitions | – | – | – |
| gaboxadol citrate [Citrate Salt from isopropyl acetate] | – | about 190 °C | – | TGA weight loss ([3]; from 31° C. to 109° C.): 18.5 wt %; DSC exothermic transition onset [2]: 175 °C |
| gaboxadol bis-sulfate [Sulfate Salt from trifluorotoluene (Type I)] | – | about 220 °C | 220 °C | TGA weight loss, step 2 ([3]; from 87° C. to 180° C.): 4.3 wt %; TGA weight loss, step 1 ([3]; from about 50° C. to 87° C.): 1.2 wt % |
| O=C(O)CC(O)(CC(=O)O)C(=O)O.Oc1noc2c1CCNC2 [gaboxadol citrate] | – | about 190 °C | 175 °C | TGA weight loss ([3]; from 32° C. to 103° C.): 8.9 wt % |
| Oc1noc2c1CCNC2 [Calcium Salt, gaboxadol calcium] | exhibited exothermic decomposition | – | – | – |
| gaboxadol bis-sulfate [Sulfate Salt from ethanol and acetonitrile (Type III)] | – | about 220 °C | 207 °C | TGA weight loss, step 2 ([3]; from 118° C. to 154° C.): 0.8 wt %; TGA weight loss, step 1 ([3]; from about 50° C. to 118° C.): 1.4 wt % |
| gaboxadol succinate [Succinate Salt] | – | 193 °C | 198 °C | TGA weight loss before decomposition (in words) [3]: no weight loss |
| gaboxadol fumarate [Fumarate Salt] | – | about 190 °C | 215 °C | TGA weight loss before decomposition (in words) [3]: no weight loss |
| gaboxadol acetate [Acetate Salt] | – | 205 °C | – | TGA weight loss ([3]; from 40° C. to 115° C.): 5.0 wt %; DSC exothermic transition onset [2]: 204 °C |
| Oc1noc2c1CCNC2 [Potassium Salt, gaboxadol potassium] | exhibited exothermic transitions | – | – | – |
| Oc1noc2c1CCNC2 [Sodium Salt, gaboxadol sodium] | exhibited exothermic transitions | – | – | – |
| gaboxadol phosphate [Phosphate Salt] | – | 214 °C | about 200 °C | TGA weight loss before decomposition (in words) [3]: no weight loss |
| Oc1noc2c1CCNC2.c1ccc(CNCCNCc2ccccc2)cc1 [N,N-Dibenzyl-ethylenediamine Salt, gaboxadol N,N-dibenzyl(ethylene)diamine] | exhibited an exothermic transition | – | – | – |
| gaboxadol tartrate [L-Tartrate Salt] | – | about 189 °C | 199 °C | TGA weight loss ([3]; from 31° C. to 177° C.): 0.6 wt % |
| gaboxadol sulfate [Sulfate Salt (1 mol equiv.)] | – | 196 °C | about 190 °C | TGA weight loss ([3]; from 50° C. to 176° C.): 7.1 wt % |
